Experimental data: ChEMBL document CHEMBL4251695, “Data Sets Representative of the Structures and Experimental Properties of FDA-Approved Drugs” (ACS Med Chem Lett, 2018)

Tests used:
Format in all cases: ADME, organism-based
Conditions in all cases: in vivo
Homo sapiens = species on record: Homo sapiens; assay: Half life in human
[1] = Clearance in human
[2] = Cmax in human

clearance [1] | Compound | other results
 | COc1cc2c(cc1OC)[C@@H](Cc1cc(OC)c(OC)c(OC)c1)[N+](C)(CCCOC(=O)CC/C=C/CCC(=O)OCCC[N+]1(C)CCc3cc(OC)c(OC)cc3[C@H]1Cc1cc(OC)c(OC)c(OC)c1)CC2 (some centres undefined) | t1/2 (Homo sapiens): 2 min
115000 mL/min | CCCCC[C@H](O)/C=C/[C@H]1[C@H](O)CC(=O)[C@@H]1CCCCCCC(=O)O [ALPROSTADIL] | 
 | CC(C)C[C@H]1C(=O)N2CCC[C@H]2[C@]2(O)O[C@](NC(=O)[C@@H]3C=C4c5cccc6[nH]c(Br)c(c56)C[C@H]4N(C)C3)(C(C)C)C(=O)N12 [BROMOCRIPTINE] | Cmax [2]: 0.711 nM
0.233 mL/min | Nc1ccn([C@@H]2O[C@H](CO)[C@@H](O)[C@@H]2O)c(=O)n1 [CYTARABINE] | 
